Results taken from PMC11555678, “Improved Broad Spectrum Antifungal Drug Synergies with Cryptomycin, a Cdc50-Inspired Antifungal Peptide” (ACS Infectious Diseases, 2024).
Converted amounts (≈) assume the structure as drawn. Square brackets hold non-standard residues; d marks the D form. Peptide text beside a SMILES is read from it. * marks the point of attachment. Myristoyl = CCCCCCCCCCCCCC(=O)*; Orn = NCCC[C@H](N)C(=O)O

How the values were obtained:
[1] = tested on: C. neoformans H99 and cdc50Δ; experiment: Intracellular calcium measurement (Fluo-3AM, flow cytometry); format: cell-based, Cryptococcus neoformans; conditions: YPD, remained elevated for the 60 min time course
Experimental: Intracellular calcium measurement was carried out in accordance with previously reported methodologies.[35] Yeast cells were sub cultured ON in YPD, and the next day cells were washed twice in D-Hanks (0.4 g/Liter KCl, 0.06 g/Liter KH2PO4, 8.0 g/Liter NaCl, 0.35 g/Liter NaHCO3, 0.06 g/Liter Na2HPO4·7H2O) and adjusted to 1 × 10^7 cfu/mL in 5 mL D-Hanks. Fluo-3-AM stock solution in DMSO was diluted 1000-fold to operating stain concentration of 10 μM. Cells were stained in the dark for 30 min at 37 °C, 225 rpm, in a 12 mL culture tube. Stained cells were washed three times in D-Hanks and resuspended into a minimal amount of YPD or calcium-enriched YPD required to inoculate each condition. Each condition was prepared with three technical replicates. After inoculating 1 mL YPD with 0.2 mL cell suspension, 0.2 mL was aliquoted into a flow tube for the 0 min time point. The flow tube was placed on ice until flow analysis. […] To allow for sample processing for each time point, each set of replicates was inoculated and treated about 2 min apart. Subsequent 0.2 mL aliquots were drawn at 12, 24, 36, and 60 min for flow analysis. Live cells were analyzed using BD FACS via 100,000 events were collected, and singlets were gated for each sample. The mean fluorescence of the singlets was recorded and plotted as a function of […].

Cn cdc50Δ = experiment: Intracellular ROS detection (H2DCFDA, flow cytometry); format: cell-based, Cryptococcus neoformans; conditions: 30 min exposure in YPD
Experimental: (§1) Protocol was carried out in accordance with previously reported methodologies.[35] Yeast cells were grown ON in liquid YPD, washed once in H2O, and resuspended in fresh YPD. The OD600 was adjusted to 0.2 in YPD. Cells were incubated for 3 h at 30 °C, 225 rpm, and then stained with 10 μM H2DCFDA for 2 h at 30 °C, 225 rpm, in the dark. Stained cells were washed twice with DD-H2O and resuspended in the minimal amount of YPD or calcium-enriched YPD needed to inoculate each technical replicate with cells. Each condition was prepared with four technical replicates. In the dark, the stained cells were titrated with KKOO-NH2 from 0.25 to 1× MIC and incubated for 30 min at 30 °C, 225 rpm, in 1 mL of YPD in 12 mL of vented culture tubes. After treatment, cells were transferred to 1.5 mL Eppendorf and centrifuged for 5 min at 2000 rpm. The cells were washed once with 0.5 mL of PBS and resuspended in 0.2 mL of PBS, and stored on ice for live-cell flow analysis, BD FACS Via (Franklyn Lakes, NJ). 100,000 events were recorded, and singlets were gated from SSC-A × FSC-A plot. Mean fluorescence signal intensity from the probe was plotted as a function of peptide concentration. Cells that remained after FACS were pooled based on their condition and imaged under the fluorescence microscope, Zeiss Axioscope 5.

Cn H99 = experiment: as above; format: cell-based, Cryptococcus neoformans; conditions: 30 min exposure in YPD
Experimental: as §1

C. neoformans cdc50Δ = conditions: Cdc50 deleted, previous study; cited from earlier work
Experimental: Our previous studies have identified that the Cn cdc50Δ mutant was highly susceptible to CAS compared to the wild-type.[23] The minimum inhibitory concentration (MIC) of CAS was reduced 4-fold from 16 to 4 μg/mL when Cdc50 was deleted. The surprising observation that loss of Cdc50 sensitized Cryptococcus to CAS led to an obvious question: why did a mutation to a seemingly disparate cellular system-membrane homeostasis proteins have such a dramatic effect on the susceptibility to cell wall biosynthesis inhibitors? It was subsequently discovered that Cdc50 in C. neoformans is unique because it h ...

C. neoformans MRL862 = conditions: cited from earlier work
Experimental: First, the MICs of the peptides and commonly used antifungal drugs were assessed on their own. A full accounting of MICs of intermediate SAR screen peptides is reported in Supporting Information, Table S1.

## CCCCCCCCCCCCCC(=O)N[C@@H](Cc1c[nH]c2ccccc12)C(=O)NCC(=O)NCC(=O)N[C@H](C(=O)N[C@@H](CCCN)C(=O)N[C@@H](CCCN)C(=O)N[C@@H](CC(N)=O)C(=O)N[C@@H](Cc1ccc(O)cc1)C(=O)N[C@@H](C)C(N)=O)[C@@H](C)CC [KKOO-NH2] (Myristoyl-WGGI[Orn][Orn]NYA-NH2)
[1]
  time to difference in intracellular calcium signaling vs untreated cells: ≤ 12 min
Cn cdc50Δ
  lowest peptide concentration with elevated ROS production: 1 µg/mL
Cn H99
  lowest peptide concentration with elevated ROS production: 4 µg/mL

## CC[C@H](C)C[C@H](C)CCCCCCCCC(=O)N[C@H]1C[C@@H](O)[C@@H](NCCN)NC(=O)[C@@H]2[C@@H](O)CCN2C(=O)[C@H]([C@H](O)CCN)NC(=O)[C@H]([C@H](O)[C@@H](O)c2ccc(O)cc2)NC(=O)[C@@H]2C[C@@H](O)CN2C(=O)[C@H]([C@@H](C)O)NC1=O [CAS, caspofungin]
C. neoformans cdc50Δ
  MIC: 4 µg/mL (≈ 3.66 µM)

## OC(Cn1cncn1)(Cn1cncn1)c1ccc(F)cc1F [FLC, fluconazole]
C. neoformans MRL862
  MIC, reported value: 128 µg/mL (≈ 418 µM)
